For this experiment, the system named is DRG neurons from postnatal day 5 rats. The experiment is described as follows: Neurite outgrowth assay, DRG neurons with myelin-associated inhibitors. The format is cell-based, rat. As to conditions: 24 hours. The protocol:
FIG. 5. CK2 rescues postnatal rat neurones from inhibition of neurite outgrowth by the myelin-associated inhibitors, Nogo, MAG and OMgp. (A) DRG neurones from postnatal day 5 rats were cultured with or without the Nogo-66 fragment in the presence of the indicated reagents. After 24 hours from addition of the indicated reagents, cells were fixed and ã-tubulin III was detected by immunofluorescence. (B) The number of cells extending neurites of more than 20 μm and total ã-tubulin III positive cell number were counted from images taken in (A). The population of cells extending neurite-like structures of more than 20 μm was indicated as a percentage of total cell number. An average of three experiments is shown. Error bars indicate S. E. between experiments. Data were analysed with student's t test. […] (E) The number of cells extending neurites of more than 20 μm and total ã-tubulin III positive cell number were counted from images taken in (C and D). […] Cells were fixed and ã-tubulin III was detected by immunofluorescence. […] Over-expressed NgR1-Myc was detected by immunofluorescence. (H) The number of Myc-positive cells extending neurites of more than 20 μm and total Myc-positive cell number were counted from images taken in (G). […]

On to `Nc1ncnc2c1ncn2[C@@H]1O[C@H](COP(=O)(O)OP(=O)(O)OP(=O)(O)O)[C@@H](O)[C@H]1O` [ATP], for which the “neurite outgrowth in the presence of the Nogo-66 fragment” value is listed as “did not suppress”.

B1: BDNF: brain-derived neurotrophic factor, member of the neurotrophin nerve growth factor family, purchased from Merck (protein, UniProt P23560 19-247, looked up)
Neurotrophic factor BDNF …: APMKEANIRGQGGLAYPGVRTHGTLESVNGPKAGSRGLTSLADTFEHVIEELLDEDQKVRPNEENNKDADLYTSRVMLSSQVPLEPPLLFLLEEYKNYLDAANMSMRVRRHSDPARRGELSVCDSISEWVTAADKKTAVDMSGGTVTVLEKVPVSKGQLKQYFYETKCNPMGYTKEGCRGIDKRHWNSQCRTTQSYVRALTMDSKKRIGWRFIRIDTSCVCTLTIKRGR
Turning to B1, the “neurite outgrowth in the presence of the Nogo-66 fragment” value is given as “fails to block”.

Values taken from patent US9089565B2, “Compositions and methods for causing neurite outgrowth” (MEDICAL RESEARCH COUNCIL, priority 2009, dated 2015).
